Assay results taken from ChEMBL document CHEMBL1138670, “Prospects for inhibitors of protein tyrosine phosphatase 1B as antidiabetic drugs” (J Med Chem, 2004).
Blank lines part the entries; values can stand above or below the compound they belong to.

What was measured:
[1] = target: T1, Tyrosine-protein phosphatase non-receptor type 1 (Homo sapiens) (UniProt P18031); assay: Inhibitory concentration for Protein-tyrosine phosphatase 1B
T1 sequence (whole entry): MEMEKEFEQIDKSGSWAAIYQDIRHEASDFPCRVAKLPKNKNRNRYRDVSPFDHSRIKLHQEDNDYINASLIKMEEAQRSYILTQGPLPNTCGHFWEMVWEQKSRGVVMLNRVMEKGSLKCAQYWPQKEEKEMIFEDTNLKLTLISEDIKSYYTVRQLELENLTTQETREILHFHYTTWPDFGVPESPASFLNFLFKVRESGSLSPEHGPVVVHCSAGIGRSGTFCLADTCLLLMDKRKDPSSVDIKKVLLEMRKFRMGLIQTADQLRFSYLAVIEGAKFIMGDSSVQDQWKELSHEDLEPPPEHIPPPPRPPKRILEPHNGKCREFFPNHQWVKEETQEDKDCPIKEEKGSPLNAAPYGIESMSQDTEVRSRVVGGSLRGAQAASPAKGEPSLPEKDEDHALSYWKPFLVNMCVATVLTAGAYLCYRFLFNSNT

[2] = target: T2, Tyrosine-protein phosphatase non-receptor type 1 (Homo sapiens, UniProt P18031); assay: Inhibitory activity against Protein-tyrosine phosphatase 1B at pH 5.5
T2 sequence (P18031 whole entry): T1 sequence (whole entry)

[3] = Bioavailability; assay type: ADME, organism-based; details: eutheria, in vivo; read-out: Fez
[4] = target: T2, Tyrosine-protein phosphatase non-receptor type 1; assay: Inhibitory activity against Protein-tyrosine phosphatase 1B

Concentration [1]: 5.6 µM
SMILES: CC(C)c1ccc(N2N=C3CSCC=C3C(C#N)=C2N)cc1

Ki [2]: 18 nM
SMILES: O=C(O)C(=O)Nc1sc2c(c1C(=O)O)CCN[C@H]2CNC(=O)c1cc2cc(F)ccc2[nH]1

bioavailability [3]: 13%
SMILES: O=C(c1ccccc1)C(Cc1ccc(C(F)(F)P(=O)(O)O)cc1)c1ccccc1 (centres undefined)

SMILES: CCc1cc(CC(NC(C)=O)C(=O)NCCCCC(=O)N[C@@H](CCSC)C(=O)O)ccc1N(C(=O)C(=O)O)c1ccccc1C(=O)O (some centres undefined)
Ki [4]: 77 nM
